Reference: patent EP0993459B1, “COMPOUNDS USEFUL FOR INHIBITION OF FARNESYL PROTEIN TRANSFERASE” (SCHERING CORPORATION, priority 1997, dated 1998)

Key:
[1] = target: farnesyl protein transferase (Homo sapiens, UniProt P49354+P49356); experiment: FPT IC50, inhibition of farnesyl protein transferase, in vitro enzyme assay (procedure of WO 95/10516); format: biochemical; details: one range stated for the whole group of listed compounds, no individual values
Method: (§1) FPT IC50 (inhibition of farnesyl protein transferase, in vitro enzyme assay) and COS Cell IC50 (Cell-Based Assay) were determined following the assay procedures described in WO 95/10516, published April 20, 1995. GGPT IC50 (inhibition of geranylgeranyl protein transferase, in vitro enzyme assay), Cell Mat Assay, and anti-tumor activity (in vivo anti-tumor studies) could be determined by the assay procedures described in WO 95/10516. The disclosure of WO 95/10516 is incorporated herein by reference thereto.

[2] = test system: COS Cell; experiment: COS Cell IC50, cell-based assay (procedure of WO 95/10516)
Method: as §1

farnesyl protein transferase, sequence (P49356 whole entry, one chain of several): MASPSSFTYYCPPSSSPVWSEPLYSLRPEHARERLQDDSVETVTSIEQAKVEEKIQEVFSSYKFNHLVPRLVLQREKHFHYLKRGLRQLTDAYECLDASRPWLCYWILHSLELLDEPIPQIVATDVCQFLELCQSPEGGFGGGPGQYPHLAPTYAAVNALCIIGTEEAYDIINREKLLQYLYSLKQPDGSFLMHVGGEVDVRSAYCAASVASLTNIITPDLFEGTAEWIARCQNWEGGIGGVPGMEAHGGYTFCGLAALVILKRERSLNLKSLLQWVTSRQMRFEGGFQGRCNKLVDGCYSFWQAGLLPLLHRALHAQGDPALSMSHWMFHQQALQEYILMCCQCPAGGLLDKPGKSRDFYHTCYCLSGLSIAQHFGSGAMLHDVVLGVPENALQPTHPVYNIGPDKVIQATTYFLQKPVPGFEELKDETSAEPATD

| Structure (SMILES) | IC50 [1] [nM] | IC50 [2] [nM] |
| --- | --- | --- |
| COc1ccc2c(c1)CC(CC(=O)N1CCC([C@H]3c4ncc(Br)cc4CCc4cc(Cl)cc(Br)c43)CC1)C2=O (single isomer, unassigned) [Compound 17.0A] | ≥ 1.9 |  |
| O=C1CCC(CC(=O)N2CCC([C@H]3c4ncc(Br)cc4CCc4cc(Cl)cc(Br)c43)CC2)CC1 [Compound 13.0] | ≥ 1.9 |  |
| O=C1CCN(CC(=O)N2CCC([C@H]3c4ncc(Br)cc4CCc4cc(Cl)cc(Br)c43)CC2)CC1 [Compound 14.0] | ≥ 1.9 |  |
| O=C1CCC(=CC(=O)N2CCC([C@H]3c4ncc(Br)cc4CCc4cc(Cl)cc(Br)c43)CC2)CC1 [Compound 16.0] | ≥ 1.9 |  |
| O=C1CCCCC1CC(=O)N1CCC([C@H]2c3ncc(Br)cc3CCc3cc(Cl)cc(Br)c32)CC1 (some centres unmarked) [Compound 18.0] | ≥ 1.9 |  |
| O=C1CCCCC1CCC(=O)N1CCC([C@H]2c3ncc(Br)cc3CCc3cc(Cl)cc(Br)c32)CC1 (some centres unmarked) [Compound 19.0] | ≥ 1.9 |  |
| C[C@]1(CCC(=O)N2CCC([C@H]3c4ncc(Br)cc4CCc4cc(Cl)cc(Br)c43)CC2)CCCCC1=O [Compound 20.0] | ≥ 1.9 |  |
| O=C(C=C1CCC2(CC1)OCCO2)N1CCC([C@H]2c3ncc(Br)cc3CCc3cc(Cl)cc(Br)c32)CC1 [Compound 21.0] | ≥ 1.9 |  |
| O=C(CC1CCC2(CC1)OCCO2)N1CCC([C@H]2c3ncc(Br)cc3CCc3cc(Cl)cc(Br)c32)CC1 [Compound 22.0] | ≥ 1.9 |  |
| O=C(CC1CCC(=NO)CC1)N1CCC([C@H]2c3ncc(Br)cc3CCc3cc(Cl)cc(Br)c32)CC1 (some centres unmarked) [Compound 23.0] | ≥ 1.9 |  |
| O=C(CN1CCC2(CC1)OCCO2)N1CCC([C@H]2c3ncc(Br)cc3CCc3cc(Cl)cc(Br)c32)CC1 [Compound 24.0] | ≥ 1.9 |  |
| CON=C1CCC(CC(=O)N2CCC([C@H]3c4ncc(Br)cc4CCc4cc(Cl)cc(Br)c43)CC2)CC1 (some centres unmarked) [Compound 25.0] | ≥ 1.9 |  |
| O=C(CN1CCC(=NO)CC1)N1CCC([C@H]2c3ncc(Br)cc3CCc3cc(Cl)cc(Br)c32)CC1 [Compound 26.0] | ≥ 1.9 |  |
| CON=C1CCN(CC(=O)N2CCC([C@H]3c4ncc(Br)cc4CCc4cc(Cl)cc(Br)c43)CC2)CC1 [Compound 27.0] | ≥ 1.9 |  |
| O=C(CN1CCC2(CC1)SCCS2)N1CCC([C@H]2c3ncc(Br)cc3CCc3cc(Cl)cc(Br)c32)CC1 [Compound 28.0] | ≥ 1.9 |  |
| NC(=O)NN=C1CCC(CC(=O)N2CCC([C@H]3c4ncc(Br)cc4CCc4cc(Cl)cc(Br)c43)CC2)CC1 (some centres unmarked) [Compound 29.0] | ≥ 1.9 |  |
| CC(=O)NN=C1CCC(CC(=O)N2CCC([C@H]3c4ncc(Br)cc4CCc4cc(Cl)cc(Br)c43)CC2)CC1 (some centres unmarked) [Compound 30.0] | ≥ 1.9 |  |
| O=C(O)CON=C1CCC(CC(=O)N2CCC([C@H]3c4ncc(Br)cc4CCc4cc(Cl)cc(Br)c43)CC2)CC1 (some centres unmarked) [Compound 31.0] | ≥ 1.9 |  |

| Structure (SMILES) | IC50 [1] [nM] | IC50 [2] [nM] |
| --- | --- | --- |
| CC(C)(C)[Si](C)(C)OCCON=C1CCC(CC(=O)N2CCC([C@H]3c4ncc(Br)cc4CCc4cc(Cl)cc(Br)c43)CC2)CC1 (some centres unmarked) [Compound 32.0] | ≥ 1.9 |  |
| O=C1CCC(C(=O)N2CCC([C@H]3c4ncc(Br)cc4CCc4cc(Cl)cc(Br)c43)CC2)CC1 [Compound 33.0] | ≥ 1.9 |  |
| O=C(C1CCC2(CC1)OCCO2)N1CCC([C@H]2c3ncc(Br)cc3CCc3cc(Cl)cc(Br)c32)CC1 [Compound 34.0] | ≥ 1.9 |  |
| CON=C1CCC(C(=O)N2CCC([C@H]3c4ncc(Br)cc4CCc4cc(Cl)cc(Br)c43)CC2)CC1 (some centres unmarked) [Compound 35.0] | ≥ 1.9 |  |
| CC(C)(C)OC(=O)N[C@H]1CC[C@@H](C(=O)N2CCC([C@H]3c4ncc(Br)cc4CCc4cc(Cl)cc(Br)c43)CC2)CC1 [Compound 36.0] | ≥ 1.9 |  |
| N[C@H]1CC[C@@H](C(=O)N2CCC([C@H]3c4ncc(Br)cc4CCc4cc(Cl)cc(Br)c43)CC2)CC1 [Compound 37.0] | ≥ 1.9 |  |
| NC(=O)N[C@H]1CC[C@@H](C(=O)N2CCC([C@H]3c4ncc(Br)cc4CCc4cc(Cl)cc(Br)c43)CC2)CC1 [Compound 38.0] | ≥ 1.9 |  |
| CCOC(=O)C(=O)N[C@H]1CC[C@@H](C(=O)N2CCC([C@H]3c4ncc(Br)cc4CCc4cc(Cl)cc(Br)c43)CC2)CC1 [Compound 39.0] | ≥ 1.9 |  |
| CS(=O)(=O)N[C@H]1CC[C@@H](C(=O)N2CCC([C@H]3c4ncc(Br)cc4CCc4cc(Cl)cc(Br)c43)CC2)CC1 [Compound 40.0] | ≥ 1.9 |  |
| CC(C)(C)OC(=O)NC1CCCC(C(=O)N2CCC([C@H]3c4ncc(Br)cc4CCc4cc(Cl)cc(Br)c43)CC2)C1 (some centres unmarked) [Compound 43.0] | ≥ 1.9 |  |
| NC1CCCC(C(=O)N2CCC([C@H]3c4ncc(Br)cc4CCc4cc(Cl)cc(Br)c43)CC2)C1 (some centres unmarked) [Compound 44.0] | ≥ 1.9 |  |
| NC(=O)NC1CCCC(C(=O)N2CCC([C@H]3c4ncc(Br)cc4CCc4cc(Cl)cc(Br)c43)CC2)C1 (some centres unmarked) [Compound 45.0] | ≥ 1.9 |  |
| CCOC(=O)C(=O)NC1CCCC(C(=O)N2CCC([C@H]3c4ncc(Br)cc4CCc4cc(Cl)cc(Br)c43)CC2)C1 (some centres unmarked) [Compound 46.0] | ≥ 1.9 |  |
| NC(=O)C(=O)NC1CCCC(C(=O)N2CCC([C@H]3c4ncc(Br)cc4CCc4cc(Cl)cc(Br)c43)CC2)C1 (some centres unmarked) [Compound 49.1] | ≥ 1.9 |  |
| O=C([C@H]1CC[C@H](O)CC1)N1CCC([C@H]2c3ncc(Br)cc3CCc3cc(Cl)cc(Br)c32)CC1 [Compound 68.0] | ≥ 1.9 |  |
| CC(=O)O[C@H]1CC[C@@H](C(=O)N2CCC([C@H]3c4ncc(Br)cc4CCc4cc(Cl)cc(Br)c43)CC2)CC1 [Compound 69.0] |  | 30 |
| O=C([C@H]1CC[C@@H](O)CC1)N1CCC([C@H]2c3ncc(Br)cc3CCc3cc(Cl)cc(Br)c32)CC1 [Compound 70.0] | ≥ 1.9 |  |
